These results are taken from patent publication US20210395239A1 (Hoffmann-La Roche Inc., priority 2018, published 2021).

The target in the experiment is T1, human TLR7 (Homo sapiens, UniProt Q9NYK1).
T1 construct: host or cells: HEK293 (HEK-Blue hTLR7)
T1 sequence (Q9NYK1 27-1049): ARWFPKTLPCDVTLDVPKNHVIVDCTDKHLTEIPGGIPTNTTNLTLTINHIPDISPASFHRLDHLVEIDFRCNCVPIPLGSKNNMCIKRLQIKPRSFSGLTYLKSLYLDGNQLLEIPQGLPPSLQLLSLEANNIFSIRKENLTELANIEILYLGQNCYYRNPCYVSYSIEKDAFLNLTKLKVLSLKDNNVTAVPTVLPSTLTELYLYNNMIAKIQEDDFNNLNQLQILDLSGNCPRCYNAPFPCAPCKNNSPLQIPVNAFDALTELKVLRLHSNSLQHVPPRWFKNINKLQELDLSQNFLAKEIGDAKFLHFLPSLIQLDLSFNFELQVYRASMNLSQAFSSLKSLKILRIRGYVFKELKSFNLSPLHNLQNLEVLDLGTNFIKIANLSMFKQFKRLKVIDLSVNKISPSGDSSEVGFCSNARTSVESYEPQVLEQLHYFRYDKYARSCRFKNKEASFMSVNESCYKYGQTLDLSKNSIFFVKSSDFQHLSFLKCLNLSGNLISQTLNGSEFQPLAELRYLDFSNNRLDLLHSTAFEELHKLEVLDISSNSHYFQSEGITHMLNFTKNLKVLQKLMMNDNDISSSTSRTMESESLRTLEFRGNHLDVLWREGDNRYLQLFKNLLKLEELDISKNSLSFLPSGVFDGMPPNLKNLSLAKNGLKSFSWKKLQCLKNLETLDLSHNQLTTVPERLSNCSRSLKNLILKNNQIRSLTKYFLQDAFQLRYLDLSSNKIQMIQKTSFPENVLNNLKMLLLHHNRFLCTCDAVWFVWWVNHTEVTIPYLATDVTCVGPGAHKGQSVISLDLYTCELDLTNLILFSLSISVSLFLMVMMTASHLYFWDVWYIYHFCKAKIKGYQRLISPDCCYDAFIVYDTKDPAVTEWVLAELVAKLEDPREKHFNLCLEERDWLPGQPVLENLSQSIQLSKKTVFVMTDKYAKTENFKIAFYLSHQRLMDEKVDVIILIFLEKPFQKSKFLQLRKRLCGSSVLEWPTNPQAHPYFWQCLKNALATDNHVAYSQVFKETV
Nature of the experiment: HEK293-Blue-hTLR-7 cells assay (SEAP reporter, R848 stimulation). It is filed as cell-based. The note with it: HEK293-Blue-hTLR7 cells, R848, 20 hrs; read-out: HEK/hTLR7 IC50. The method in brief:
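HEK293-Blue-hTLR7 cells (NF-κB/AP-1-driven SEAP reporter) were stimulated with R848 alongside serially diluted compound at 1% final DMSO for 20 h at 37 °C. Supernatant SEAP was then developed with QUANTI-Blue for 2 h at 37 °C and absorbance read at 620–655 nm; antagonism is measured as reduced reporter signal.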
Turning to `C[C@@H]1CN(c2ccc(C#N)c3ncccc23)C[C@H](CN2CCN(c3ccnc(NC4CNC4)n3)CC2)O1` [Example 28, 5-[(2S,6R)-2-[[4-[2-(azetidin-3-ylamino)pyrimidin-4-yl]piperazin-1-yl]methyl]-6-methyl-morpholin-4-yl]quinoline-8-carbonitrile], the IC50 was determined as 11 nM.

Turning to `CO[C@H]1CN(c2cccc(N3CCN(C[C@H]4CN(c5ccc(C#N)c6ncccc56)C[C@@H](C)O4)CC3)n2)C[C@H]1N` [Example 42, 5-[(2S,6R)-2-[[4-[6-[(3R,4S)-3-amino-4-methoxy-pyrrolidin-1-yl]-2-pyridyl]piperazin-1-yl]methyl]-6-methyl-morpholin-4-yl]quinoline-8-carbonitrile], the IC50 worked out at 23 nM. In the case of `C[C@@H]1CN(c2ccc(C#N)c3ncccc23)C[C@H](CN2CCN(c3cccc(N4CC(N)C(F)C4)n3)CC2)O1` (stereo partly drawn) [Example 40, 5-[(2S,6R)-2-[[4-[6-(3-amino-4-fluoro-pyrrolidin-1-yl)-2-pyridyl]piperazin-1-yl]methyl]-6-methyl-morpholin-4-yl]quinoline-8-carbonitrile], the IC50 came out at 35 nM.

For the compound `C[C@@H]1CN(c2ccc(C#N)c3ncccc23)C[C@H](CN2CCN(c3ccnc(N4CCN(C(=O)C5CCN5)CC4)n3)CC2)O1` (stereo partly drawn) [Example 34, 5-[(2S,6R)-2-[[4-[2-[4-(azetidine-2-carbonyl)piperazin-1-yl]pyrimidin-4-yl]piperazin-1-yl]methyl]-6-methyl-morpholin-4-yl]quinoline-8-carbonitrile], the IC50 turned out to be 27 nM.

Consider `Cc1cc(N2CCN(C[C@H]3CN(c4ccc(C#N)c5ncccc45)C[C@@H](C)O3)CC2)nc(NC2CNCC2C#N)n1` (stereo partly drawn) [Example 57, 5-[(2S,6R)-2-[[4-[2-[(4-cyanopyrrolidin-3-yl)amino]-6-methyl-pyrimidin-4-yl]piperazin-1-yl]methyl]-6-methyl-morpholin-4-yl]quinoline-8-carbonitrile], for which the IC50 was 27 nM. For the compound `C[C@@H]1CN(c2ccc(C#N)c3ncccc23)C[C@H](CN2CCN(c3ccnc(N4CCC(N)CC4)n3)CC2)O1` [Example 27, 5-[(2S,6R)-2-[[4-[2-(4-amino-1-piperidyl)pyrimidin-4-yl]piperazin-1-yl]methyl]-6-methyl-morpholin-4-yl]quinoline-8-carbonitrile], the IC50 was 15 nM. The result for `Cc1cc(N2CCN(C[C@H]3CN(c4ccc(C#N)c5ncccc45)C[C@@H](C)O3)CC2)nc(N2C[C@@H]3COC[C@@H](C2)N3)n1` [Example 58, 5-[(2R,6S)-2-methyl-6-[[4-[6-methyl-2-[(1R,5R)-3-oxa-7,9-diazabicyclo[3.3.1]nonan-7-yl]pyrimidin-4-yl]piperazin-1-yl]methyl]morpholin-4-yl]quinoline-8-carbonitrile] reads 30 nM; that for `Cc1cc(N2CCN(C[C@H]3CN(c4ccc(C#N)n5ncc(F)c45)C[C@@H](C)O3)CC2)nc(N2CCNCC2)n1` [Example 67, 3-Fluoro-4-[(2R,6S)-2-methyl-6-[[4-(6-methyl-2-piperazin-1-yl-pyrimidin-4-yl)piperazin-1-yl]methyl]morpholin-4-yl]pyrazolo[1,5-a]pyridine-7-carbonitrile], 24 nM.

As to `C[C@@H]1CN(c2ccc(C#N)c3ncccc23)C[C@H](CN2CCN(c3ccnc(N4CC(N)C4)n3)CC2)O1` [Example 23, 5-[(2S,6R)-2-[[4-[2-(3-aminoazetidin-1-yl)pyrimidin-4-yl]piperazin-1-yl]methyl]-6-methyl-morpholin-4-yl]quinoline-8-carbonitrile], the IC50 turned out to be 50 nM. The result for `COC1CN(c2ccc(C3CN(C[C@H]4CN(c5cc(=O)n(C)c6ncccc56)C[C@@H](C)O4)C3)cc2)C[C@H]1N` (stereo in doubt) [Example 172, 4-[(2S,6R)-2-[[3-[4-[(3R,4R)-3-amino-4-methoxy-pyrrolidin-1-yl]phenyl]azetidin-1-yl]methyl]-6-methyl-morpholin-4-yl]-1-methyl-1,8-naphthyridin-2-one] reads 41 nM; that for `C[C@@H]1CN(c2ccc(C#N)c3ncccc23)C[C@H](CN2CCN(c3ncc(C#N)c(N4CCNCC4)n3)CC2)O1` [Example 51, 5-[(2S,6R)-2-[[4-(5-cyano-4-piperazin-1-yl-pyrimidin-2-yl)piperazin-1-yl]methyl]-6-methyl-morpholin-4-yl]quinoline-8-carbonitrile], 28 nM; that for `Cc1cc(N2CCN(C[C@H]3CN(c4ccc(C#N)c5ncccc45)C[C@@H](C)O3)CC2)nc(N2C[C@@H](N)[C@@H](F)C2)n1` [Example 55, 5-[(2S,6R)-2-[[4-[2-[(3R,4S)-3-amino-4-fluoro-pyrrolidin-1-yl]-6-methyl-pyrimidin-4-yl]piperazin-1-yl]methyl]-6-methyl-morpholin-4-yl]quinoline-8-carbonitrile], 14 nM. The result for `CO[C@H]1CN(c2nc(C)cc(N3CCN(C[C@H]4CN(c5ccc(C#N)c6ncccc56)C[C@@H](C)O4)CC3)n2)CC1N` (relative stereo) [Example 59, 5-[(2R,6S)-2-methyl-6-[[4-[6-methyl-2-[trans-3-amino-4-methoxy-pyrrolidin-1-yl]pyrimidin-4-yl]piperazin-1-yl]methyl]morpholin-4-yl]quinoline-8-carbonitrile] reads 11 nM. For `C[C@@H]1CN(c2ccc(C#N)c3ncccc23)C[C@H](CN2CCN(c3cccc(N4CCNCC(O)C4)n3)CC2)O1` (stereo partly drawn) [Example 41, 5-[(2S,6R)-2-[[4-[6-(6-hydroxy-1,4-diazepan-1-yl)-2-pyridyl]piperazin-1-yl]methyl]-6-methyl-morpholin-4-yl]quinoline-8-carbonitrile], the IC50 was 81 nM. The result for `Cc1cc(N2CCN(C[C@H]3CN(c4ccc(C#N)c5ncccc45)C[C@@H](C)O3)CC2)nc(N2CC(N)C(F)(F)C2)n1` (stereo partly drawn) [Example 63, 5-[(2S,6R)-2-[[4-[2-(4-amino-3,3-difluoro-pyrrolidin-1-yl)-6-methyl-pyrimidin-4-yl]piperazin-1-yl]methyl]-6-methyl-morpholin-4-yl]quinoline-8-carbonitrile] reads 54 nM.

Regarding `Cc1cc(N2CCN(C[C@H]3CN(c4ccc(C#N)c5ncccc45)C[C@@H](C)O3)CC2)nc(N2CCNCC(O)C2)n1` (stereo partly drawn) [Example 66, 5-[(2S,6R)-2-[[4-[2-(6-hydroxy-1,4-diazepan-1-yl)-6-methyl-pyrimidin-4-yl]piperazin-1-yl]methyl]-6-methyl-morpholin-4-yl]quinoline-8-carbonitrile], the IC50 is 17 nM. As to `C[C@@H]1CN(c2cc(=O)n(C)c3ncccc23)C[C@H](CN2CC(c3ccc(N4CC(F)[C@H](N)C4)cc3)C2)O1` (stereo in doubt) [Example 174, 4-[(2S,6R)-2-[[3-[4-[(3R,4R)-3-amino-4-fluoro-pyrrolidin-1-yl]phenyl]azetidin-1-yl]methyl]-6-methyl-morpholin-4-yl]-1-methyl-1,8-naphthyridin-2-one], the IC50 stood at 47 nM.

As for `C[C@@H]1CN(c2ccc(C#N)c3ncccc23)C[C@H](CN2CCN(c3cccc(N4CCNCC4)n3)CC2)O1` [Example 10, 5-[(2R,6S)-2-methyl-6-[[4-(6-piperazin-1-yl-2-pyridyl)piperazin-1-yl]methyl]morpholin-4-yl]quinoline-8-carbonitrile], the IC50 is 33 nM.

For `CO[C@H]1CN(c2nccc(N3CCN(C[C@H]4CN(c5ccc(C#N)c6ncccc56)C[C@@H](C)O4)CC3)n2)C[C@@H]1N` [Example 26, 5-[(2S,6R)-2-[[4-[2-trans-(3-amino-4-methoxy-pyrrolidin-1-yl)pyrimidin-4-yl]piperazin-1-yl]methyl]-6-methyl-morpholin-4-yl]quinoline-8-carbonitrile], the IC50 was determined as 8 nM. As for `C[C@@H]1CN(c2ccc(C#N)n3ncc(F)c23)C[C@H](CN2CCN(c3ccc([C@@H]4CNCCO4)cc3)CC2)O1` [Example 177, 3-fluoro-4-[(2R,6S)-2-methyl-6-[[4-[4-[(2R)-morpholin-2-yl]phenyl]piperazin-1-yl]methyl]morpholin-4-yl]pyrazolo[1,5-a]pyridine-7-carbonitrile], the figure is 16 nM; as for `C[C@@H]1CN(c2ccc(C#N)c3ncccc23)C[C@H](CN2CCN(c3ccnc(N4CCN(C(=O)CN(C)C)CC4)n3)CC2)O1` [Example 32, 5-[(2S,6R)-2-[[4-[2-[4-[2-(dimethylamino)acetyl]piperazin-1-yl]pyrimidin-4-yl]piperazin-1-yl]methyl]-6-methyl-morpholin-4-yl]quinoline-8-carbonitrile], 6 nM.
